Consider one compound from patent publication EP2842965A1, “Neuromedin U analogs comprising serum albumin binding amino acid residue” (Gubra ApS, priority 2013, dated 2015).

Starred links: 1 amine or outer side, 2 acyl side, 3 side chain; linkers in the order of their positions; H or OH if unused. Residues, ends and D or L forms follow the SMILES beside them. Groups on a side chain read outwards from the residue. *: point of attachment. γGlu = O=C(O)[C@H](CCC(=O)[*:2])N[*:1]; Palmitoyl = CCCCCCCCCCCCCCCC(=O)*

The target of this assay is T1, Neuromedin U receptor 1 (NMUR1) (Homo sapiens, UniProt Q9HB89).
T1 construct: expressed in transfected cells; host or cells: HEK293 cells, transient calcium phosphate transfection
T1 sequence (Q9HB89 1-426): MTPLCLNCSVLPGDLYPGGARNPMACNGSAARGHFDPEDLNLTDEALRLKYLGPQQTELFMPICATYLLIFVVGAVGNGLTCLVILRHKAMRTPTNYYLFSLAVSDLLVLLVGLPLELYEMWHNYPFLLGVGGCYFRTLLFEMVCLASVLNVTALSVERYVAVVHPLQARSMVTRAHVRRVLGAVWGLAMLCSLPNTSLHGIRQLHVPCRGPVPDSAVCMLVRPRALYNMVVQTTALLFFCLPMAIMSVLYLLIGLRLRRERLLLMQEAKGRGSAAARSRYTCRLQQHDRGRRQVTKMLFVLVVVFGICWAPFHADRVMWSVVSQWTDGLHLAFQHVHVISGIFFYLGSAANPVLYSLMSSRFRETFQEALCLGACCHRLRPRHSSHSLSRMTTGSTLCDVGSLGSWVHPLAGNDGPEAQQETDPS
Kind of assay: Functional assay (IP3 SPA-ysi assay) in HEK293 cells transfected with NMUR1. It counts as cell-based. The following applies: HEK293 cells transiently transfected with NMUR1; head says cAMP, method describes IP3 SPA readout. How it is done: All compounds were dissolved in dimethyl sulfoxide (DMSO), and then water was added (total DMSO conc. was 80%). The stock concentration was 1 mM for all the compounds. Stocks were alliquoted and frozen -20°C.
The day before each assay a new standard row was prepared by dilution of the stock solution in assay buffer (1 mM acetic acid + 0.1% bovine serum albumin (BSA)). The following concentrations were prepared (depending on the ligand potency): 10^-5, 10^-6, 10^-7, 10^-7.5, 10^-8, 10^-8.5, 10^-9, 10^-10, 10^-11, 10^-12 M.
Cell cultures: The HEK293 cells are grown in (DMEM31966 glutamax supplemented with 10% FBS (fetal bovine serum) and 1% penicillin G and streptomycin) and incubated at 37°C with 10% CO2 in a humidified atmosphere. The cells were split as follows. HEK293 cells approximately 80% confluent was used. The cells were removed from the bottom of the bottle by removing the media (DMEM31966 glutamax supplemented with 10% FBS and 1% penicillin G and streptomycin), rinsed with 5 mL phosphate buffered saline (PBS) and shaken gently. […]
IP3 SPA-ysi assay: The media was removed and the plates were washed with 200 µL of Hank's balanced salt solution (HBSS) (Gibco, Life Technologies). […] The plates were sealed and shaken on high speed for 30 min, then centrifuged for 5 min at 1500 rpm and counted with 8 hours delay in the top counter. […]

As usually defined, the EC50 is the concentration needed to bring the measured effect to its halfway point. Higher therefore signals lower potency in that assay. In turn, `CCCCCCCCCCCCCCCC(=O)N[C@@H](CCC(=O)NCCCC[C@H](NC(=O)[C@H](CCC(=O)O)NC(=O)[C@H](CC(=O)O)NC(=O)[C@@H](NC(=O)[C@H](CCCNC(=N)N)NC(=O)[C@@H](N)Cc1ccccc1)C(C)C)C(=O)N[C@@H](Cc1ccccc1)C(=O)N[C@@H](CCC(N)=O)C(=O)N[C@@H](CO)C(=O)N1CCC[C@H]1C(=O)N[C@@H](Cc1ccccc1)C(=O)N[C@@H](C)C(=O)N[C@@H](CO)C(=O)N[C@@H](CCC(N)=O)C(=O)N[C@@H](CO)C(=O)N[C@@H](CCCNC(=N)N)C(=O)NCC(=O)N[C@@H](Cc1ccc(O)cc1)C(=O)N[C@@H](Cc1ccccc1)C(=O)N[C@@H](CC(C)C)C(=O)N[C@@H](Cc1ccccc1)C(=O)N[C@@H](CCCNC(=N)N)C(=O)N1CCC[C@H]1C(=O)N[C@@H](CCCNC(=N)N)C(=O)N[C@@H](CC(N)=O)C(N)=O)C(=O)O` [SEQ ID NO 14] (H-FRVDEK([γGlu-Palmitoyl])FQSPFASQSRGYFLFRPRN-NH2) came in with an EC50 of 51.4 nM.
